Structures can show the parent of a compound that is named as a salt.
These molecules were tested on CuFi-1 cells (assay: Secretory activity for chloride ions (MQAE fluorescence) in CuFi-1 cells). Conditions: CuFi-1 cells, zinc final concentration 10 μM, hydrochloride.
Format: cell-based
Experimental: Measurement of the secretory activity for chloride ions was performed in accordance with a previous report (West and Molloy, 1996). CuFi-1 cells were plated on a 96 well plate in 3×10^4 cells/well and incubated for two nights. After removing the culture medium, 100 μL/well of N-(ethoxycarbonylmethyl)-6-methoxyquinolinium bromide (MQAE) (diluted with culture medium and the concentration adjusted to 5 mM) was added. After the addition of MQAE, the cells were incubated for one night so that the indicator was passively loaded. After the loading, the cells were washed two times with Assay buffer, and 100 μL/well of Assay buffer was added. The secretory capacity for chloride ions was measured using FlexStation 1 (fluorescence wavelength of Ex: 355 nm/Em: 460 nm). In order to measure the basic value, nothing was added for 34 seconds immediately after the start of the measurement. Then, at this point, 100 μL/well of the test compound and zinc (final concentration: 10 μM) diluted with Assay buffer, which is free of chloride ions, was added, and the measurement was continued for 86 seconds (total measurement time: 120 seconds). The secretory capacity for chloride ions was calculated by dividing the average of RFU values in 10 seconds between 110 seconds and 120 seconds after the start of the measurement with the average between 0 second and 34 seconds (the basic value). The secretory activity for chloride ions of the test compound (EC50 value) was calculated by obtaining the secretory capacity for chloride ions at each concentration of the serially diluted test compound, and determining a concentration of the test compound that provides a secretory capacity of 50% from two secretory capacities and concentrations sandwiching 50% of the maximum response of each compound.
With `CCNc1nc(C(=O)O)nc(C)c1Sc1ccccc1Cl` [Example 22, 5-((2-Chlorophenyl)thio)-4-(ethylamino)-6-methylpyrimidine-2-carboxylic acid hydrochloride] the EC50 was 7.1 nM.

Same assay, conditions: Homo sapiens, CuFi-1, CuFi-1 cells, zinc final concentration 10 μM
`CCNc1nc(C(=O)O)nc(C)c1Cc1ccc(Cl)cc1Cl` [Example 1, 5-(2,4-Dichlorobenzyl)-4-(ethylamino)-6-methylpyrimidine-2-carboxylic acid hydrochloride] gave an EC50 of 9.4 nM. In the case of `CCCNc1nc(C(=O)O)nc(C)c1Cc1ccc(Cl)cc1Cl` [Example 2, 5-(2,4-Dichlorobenzyl)-4-methyl-6-(n-propylamino)pyrimidine-2-carboxylic acid hydrochloride], the EC50 is reported as 24.2 nM. With `CCN(CC)c1nc(C(=O)O)nc(C)c1Cc1ccc(Cl)cc1Cl` [Example 3, 5-(2,4-Dichlorobenzyl)-4-(diethylamino)-6-methylpyrimidine-2-carboxylic acid hydrochloride] the EC50 was 53 nM. `Cc1nc(C(=O)O)nc(N[C@@H](C)C(N)=O)c1Cc1ccc(Cl)cc1Cl` [Example 4, (S)-4-((1-Amino-1-oxopropan-2-yl)amino)-5-(2,4-dichlorobenzyl)-6-methylpyrimidine-2-carboxylic acid hydrochloride] was tested, and the EC50 was 19.6 nM. With `Cc1nc(C(=O)O)nc(NCCCOC(C)C)c1Cc1ccc(Cl)cc1Cl` [Example 5, 5-(2,4-Dichlorobenzyl)-4-((3-isopropoxypropyl)amino)-6-methylpyrimidine-2-carboxylic acid] the EC50 was 30.3 nM. `Cc1nc(C(=O)O)nc(NCC(C)(C)O)c1Cc1ccc(Cl)cc1Cl` [Example 6, 5-(2,4-Dichlorobenzyl)-4-((2-hydroxy-2-methylpropyl)amino)-6-methylpyrimidine-2-carboxylic acid] was tested, and the EC50 was 50.3 nM. Work on `Cc1nc(C(=O)O)nc(N)c1Cc1ccc(Cl)cc1Cl` [Example 7, 4-Amino-5-(2,4-dichlorobenzyl)-6-methylpyrimidine-2-carboxylic acid trifluoroacetate] yielded an EC50 of 41.7 nM. `Cc1nc(C(=O)O)nc(NCC(=O)O)c1Cc1ccc(Cl)cc1Cl` [Example 8, 4-((Carboxymethyl)amino)-5-(2,4-dichlorobenzyl)-6-methylpyrimidine-2-carboxylic acid hydrochloride] was tested, and the EC50 was 50.6 nM. Work on `CCNc1nc(C(=O)O)nc(C(C)C)c1Cc1ccc(Cl)cc1Cl` [Example 9, 5-(2,4-Dichlorobenzyl)-4-(ethylamino)-6-isopropylpyrimidine-2-carboxylic acid] yielded an EC50 of 5.5 nM. Work on `CCNc1nc(C(=O)O)nc(C2CC2)c1Cc1ccc(Cl)cc1Cl` [Example 10, 4-Cyclopropyl-5-(2,4-dichlorobenzyl)-6-(ethylamino)pyrimidine-2-carboxylic acid] yielded an EC50 of 7.3 nM. Molecule `CCc1nc(C(=O)O)nc(NC)c1Cc1ccccc1Cl` [Example 11, 5-(2-Chlorobenzyl)-4-ethyl-6-(methylamino)pyrimidine-2-carboxylic acid] has an EC50 of 11.1 nM. `CCNc1nc(C(=O)O)nc(CC)c1Cc1ccccc1Cl` [Example 12, 5-(2-Chlorobenzyl)-4-ethyl-6-(ethylamino)pyrimidine-2-carboxylic acid] showed an EC50 of 6.7 nM. `CNc1nc(C(=O)O)nc(C(C)C)c1Cc1ccccc1Cl` [Example 13, 5-(2-Chlorobenzyl)-4-isopropyl-6-(methylamino)pyrimidine-2-carboxylic acid] was tested, and the EC50 was 5.6 nM. `CCNc1nc(C(=O)O)nc(C(C)C)c1Cc1ccccc1Cl` [Example 14, 5-(2-Chlorobenzyl)-4-(ethylamino)-6-isopropylpyrimidine-2-carboxylic acid] showed an EC50 of 5 nM. `CCNc1nc(C(=O)O)nc(CC)c1Cc1ccc(Cl)cc1Cl` [Example 15, 5-(2,4-Dichlorobenzyl)-4-ethyl-6-(ethylamino)pyrimidine-2-carboxylic acid] showed an EC50 of 10.8 nM. In the case of `CCNc1nc(C(=O)O)nc(COC)c1Cc1ccc(Cl)cc1Cl` [Example 16, 5-(2,4-Dichlorobenzyl)-4-(ethylamino)-6-(methoxymethyl)pyrimidine-2-carboxylic acid], the EC50 is reported as 52.7 nM. Work on `CNc1nc(C(=O)O)nc(C)c1Oc1ccc(Cl)cc1Cl` [Example 17, 5-(2,4-Dichlorophenoxy)-4-methyl-6-(methylamino)pyrimidine-2-carboxylic acid] yielded an EC50 of 15.7 nM. `CCNc1nc(C(=O)O)nc(C)c1Sc1ccccc1Cl` [Example 18, 5-((2-Chlorophenyl)thio)-4-(ethylamino)-6-methylpyrimidine-2-carboxylic acid] gave an EC50 of 4.6 nM. Molecule `CCNc1nc(C(=O)O)nc(C(C)C)c1Sc1ccccc1Cl` [Example 19] has an EC50 of 13.1 nM. For `CCNc1nc(C(=O)O)nc(CC)c1Sc1ccccc1Cl` [Example 20], the EC50 was 5.9 nM. Work on `CCNc1nc(C(=O)O)nc(CC)c1Sc1ccc(Cl)cc1Cl` [Example 21] yielded an EC50 of 18.6 nM. `CNc1nc(C(=O)O)nc(C)c1Sc1ccccc1` [Example 23] gave an EC50 of 86 nM. `CCNc1nc(C(=O)O)nc(C)c1Sc1ccccc1C(F)(F)F` [Example 24] was tested, and the EC50 was 12.9 nM. In the case of `CCNc1nc(C(=O)O)nc(C)c1Sc1ccccc1F` [Example 25], the EC50 is reported as 14.6 nM. In the case of `CNc1nc(C(=O)O)nc(C)c1Sc1ccccc1C(C)C` [Example 26], the EC50 is reported as 14.4 nM. Work on `CNc1nc(C(=O)O)nc(C)c1Sc1ccccc1C` [Example 27] yielded an EC50 of 14 nM. With `CNc1nc(C(=O)O)nc(C)c1Sc1cccc(Cl)c1Cl` [Example 28] the EC50 was 2.8 nM. `CNc1nc(C(=O)O)nc(C)c1Sc1ccc(F)cc1Cl` [Example 29] showed an EC50 of 6.9 nM. In the case of `Cc1nc(C(=O)O)nc(NC(C)C)c1Sc1ccccc1Cl` [Example 30], the EC50 is reported as 9.5 nM. `CCNc1nc(C(=O)O)nc(C)c1Oc1ccc(Cl)cc1Cl` [Example 31] was tested, and the EC50 was 34.9 nM. `COc1nc(C(=O)O)nc(C)c1Cc1ccc(Cl)cc1Cl` [Example 32, 5-(2,4-Dichlorobenzyl)-4-methoxy-6-methylpyrimidine-2-carboxylic acid] was tested, and the EC50 was 17.1 nM. `CCOc1nc(C(=O)O)nc(C)c1Cc1ccc(Cl)cc1Cl` [Example 33] gave an EC50 of 18.4 nM. With `COc1nc(C(=O)O)nc(C)c1Oc1ccc(Cl)cc1Cl` [Example 34] the EC50 was 80.1 nM. Molecule `CCOc1nc(C(=O)O)nc(C)c1Oc1ccc(Cl)cc1Cl` [Example 35] has an EC50 of 29.3 nM. In the case of `COc1nc(C(=O)O)nc(C)c1Sc1ccc(Cl)cc1Cl` [Example 36], the EC50 is reported as 80.6 nM. `CCc1nc(C(=O)O)nc(OC)c1Sc1ccc(Cl)cc1Cl` [Example 37] gave an EC50 of 30.3 nM. In the case of `CCc1nc(C(=O)O)nc(OC)c1Cc1ccccc1Cl` [Example 39], the EC50 is reported as 5.5 nM. `CCc1nc(C(=O)O)nc(OC)c1Cc1ccc(F)cc1Cl` [Example 40] showed an EC50 of 8.1 nM. With `CCc1nc(C(=O)O)nc(OC)c1Cc1cccc(Cl)c1Cl` [Example 41] the EC50 was 16.3 nM. In the case of `CCc1nc(C(=O)O)nc(OC)c1Cc1ccc(Cl)cc1F` [Example 42], the EC50 is reported as 7.6 nM. Work on `CCc1nc(C(=O)O)nc(OC)c1Cc1ccccc1F` [Example 43] yielded an EC50 of 66.7 nM. Work on `CCc1nc(C(=O)O)nc(OC)c1Cc1cccc(F)c1Cl` [Example 44] yielded an EC50 of 9.4 nM. For `CCCc1nc(C(=O)O)nc(OC)c1Cc1ccccc1Cl` [Example 45, hydrochloride], the EC50 was 14.7 nM. `CCCc1nc(C(=O)O)nc(OC)c1Cc1ccc(F)cc1Cl` [Example 46] gave an EC50 of 15.9 nM. In the case of `CCCc1nc(C(=O)O)nc(OC)c1Cc1ccc(Cl)cc1F` [Example 47], the EC50 is reported as 8.6 nM. Work on `CCOc1nc(C(=O)O)nc(CC)c1Cc1cccc(Cl)c1Cl` [Example 48, 5-(2,3-Dichlorobenzyl)-4-ethoxy-6-ethylpyrimidine-2-carboxylic acid] yielded an EC50 of 9.4 nM.

From patent US11034659B2, “Pyrimidine derivative” (Daiichi Sankyo Company, Limited, priority 2016, dated 2021)
